Molecules are shown by their SMILES. Where two headings read alike, the source gives them in different places. Positions of bridges follow the written chain, without caps; N, C: chain ends. Residues, ends and D or L forms follow the SMILES beside them.

In series [1] the target is T1, WT RBD (Severe acute respiratory syndrome coronavirus 2, UniProt P0DTC2). Put plainly: biochemical. It counts as binding, SARS-CoV-2.
For series [2] the following is noted: covalently immobilized onto CM5 via amine groups.
In series [3] the target is T1, WT RBD. Kind of series: biochemical. It counts as binding, SARS-CoV-2. This is another data set of the same source.

`CC[C@H](C)[C@@H]1NC(=O)[C@H](CCCCN)NC(=O)CNC(=O)[C@H](CCCNC(=N)N)NC(=O)[C@@H]2CSSC[C@H](N)C(=O)N3CCC[C@H]3C(=O)N[C@@H](Cc3c[nH]c4ccccc34)C(=O)N[C@@H](CC(N)=O)C(=O)N[C@@H](C)C(=O)N[C@@H](Cc3ccc(O)cc3)C(=O)N[C@@H](CCC(=O)O)C(=O)N[C@H]3CSSC[C@H](NC(=O)[C@H]([C@@H](C)O)NC(=O)[C@H](CCC(N)=O)NC(=O)[C@H](CCCNC(=N)N)NC1=O)C(=O)N[C@@H](Cc1c[nH]cn1)C(=O)N[C@H](C(=O)N[C@@H](Cc1ccc(O)cc1)C(=O)O)CSSC[C@H](NC(=O)[C@H](Cc1c[nH]cn1)NC(=O)[C@H](CCCNC(=N)N)NC(=O)[C@H](CC(=O)O)NC3=O)C(=O)N[C@@H](C(C)C)C(=O)N[C@@H](CO)C(=O)N[C@@H](CCCCN)C(=O)NCC(=O)N[C@@H](Cc1ccc(O)cc1)C(=O)N[C@@H]([C@@H](C)O)C(=O)NCC(=O)NCC(=O)N[C@@H](CC(N)=O)C(=O)N2` [(ΔGFG)AMSIN] (H-CPWNAYECDRHCVSKGYTGGNCRGKIRQTCHCY-OH; disulfide 1-22, 8-30, 12-32) yielded a Kd on WT RBD [1] of 119 nM.
As to `CC[C@H](C)[C@@H]1NC(=O)[C@H](CCCCN)NC(=O)CNC(=O)[C@H](CCCNC(=N)N)NC(=O)[C@@H]2CSSC[C@H](NC(=O)CNC(=O)[C@H](Cc3ccccc3)NC(=O)CN)C(=O)N3CCC[C@H]3C(=O)N[C@@H](Cc3c[nH]c4ccccc34)C(=O)N[C@@H](CC(N)=O)C(=O)N[C@@H](C)C(=O)N[C@@H](Cc3ccc(O)cc3)C(=O)N[C@@H](CCC(=O)O)C(=O)N[C@H]3CSSC[C@H](NC(=O)[C@H]([C@@H](C)O)NC(=O)[C@H](CCC(N)=O)NC(=O)[C@H](CCCNC(=N)N)NC1=O)C(=O)N[C@@H](Cc1c[nH]cn1)C(=O)N[C@H](C(=O)N[C@@H](Cc1ccc(O)cc1)C(=O)O)CSSC[C@H](NC(=O)[C@H](Cc1c[nH]cn1)NC(=O)[C@H](CCCNC(=N)N)NC(=O)[C@H](CC(=O)O)NC3=O)C(=O)N[C@@H](C(C)C)C(=O)N[C@@H](CO)C(=O)N[C@@H](CCCCN)C(=O)NCC(=O)N[C@@H](Cc1ccc(O)cc1)C(=O)N[C@@H]([C@@H](C)O)C(=O)NCC(=O)NCC(=O)N[C@@H](CC(N)=O)C(=O)N2` [AMSIN] (H-GFGCPWNAYECDRHCVSKGYTGGNCRGKIRQTCHCY-OH; disulfide 4-25, 11-33, 15-35), the “stability on CM5 chip” value in series [2] was “rather stable”. On WT RBD [3], binding was characterised by a dissociation constant (Kd) of 193 nM, the koff came to 0.00219 s⁻¹ and the on-rate constant (kon) stood at 11300 M⁻¹ s⁻¹.
In the case of `CC[C@H](C)[C@@H]1NC(=O)CNC(=O)[C@H](CCCCN)NC(=O)[C@@H]2CSSC[C@@H](C(=O)N[C@@H](Cc3ccc(O)cc3)C(=O)O)NC(=O)[C@H](CCCCN)NC(=O)[C@@H]3CSSC[C@H](NC(=O)[C@H](CCCNC(=N)N)NC(=O)[C@H](CO)NC(=O)[C@H](CC(=O)O)NC(=O)[C@H](CC(N)=O)NC(=O)CNC(=O)CNC(=O)[C@H](Cc4ccccc4)NC(=O)[C@H]([C@@H](C)CC)NC(=O)[C@H]([C@@H](C)O)NC(=O)[C@@H](NC(=O)CNC(=O)[C@H](Cc4c[nH]c5ccccc45)NC(=O)CN)CSSC[C@H](NC(=O)[C@H](Cc4ccc(O)cc4)NC(=O)CNC(=O)CNC(=O)[C@H](CCCNC(=N)N)NC(=O)[C@H](Cc4ccc(O)cc4)NC(=O)CNC(=O)[C@H](CCCNC(=N)N)NC1=O)C(=O)N[C@@H](CCCCN)C(=O)N[C@@H](CC(C)C)C(=O)NCC(=O)NCC(=O)N[C@@H]([C@@H](C)CC)C(=O)N3)C(=O)N[C@@H](Cc1c[nH]cn1)C(=O)N[C@@H](CCCNC(=N)N)C(=O)N[C@@H](Cc1c[nH]cn1)C(=O)N2` [Emorisin] (H-GWGCTIFGGNDSRCHRHCKGIRGYRGGYCKLGGICKCY-OH; disulfide 4-29, 14-35, 18-37), at WT RBD [3], binding was put at a Kd of 7.6 nM, the koff came out at 0.045 s⁻¹ and the kon worked out at 5.92e+06 M⁻¹ s⁻¹.

Source of the values: publication PMC10315472 (Frontiers in Microbiology, 2023).
